Reference: patent US8802693B1, “Azaadamantane derivatives and methods of use” (priority 2011, dated 2014)

What was measured:
[1] = tested on: subjects with mild-to-moderate Alzheimer's disease; assay: Phase 2a Clinical Study A: ADAS-cog (13-item) total score; type: in vivo, human
Protocol: (§1) A Phase 2a proof-of-concept (POC) study in subjects with mild-to-moderate dementia of Alzheimer type was conducted. The study was a randomized, double-blind, placebo- and active-controlled, multicenter study designed to evaluate the efficacy and safety of Compound A (ABT-126) in subjects diagnosed with mild-to-moderate Alzheimer's disease, defined as meeting National Institute of Neurological and Communicative Disorders and Stroke/Alzheimer's Disease and Related Disorders Association (NINCDS/ADRDA) criteria for probable AD. […] Subjects were randomized in an equal ratio to one of four treatment groups (placebo, 5 mg Compound A, 25 mg Compound A, or donepezil) for a 12-week treatment period. The primary efficacy measure was the Alzheimer's Disease Assessment Scale—cognitive subscale (ADAS-Cog). Subjects were generally in good health and any chronic medical conditions were stable during the time of screening. Subjects were not taking other medication for Alzheimer's disease.
(§2) The study was a Phase 2, randomized, double-blind, placebo- and active-controlled, multicenter study designed to evaluate the dose-response relationship and safety of two doses of Compound A in subjects diagnosed with mild to moderate AD, defined as meeting NINCDS/ADRDA criteria for probable AD.
(§3) The study consisted of a Screening Period of up to 28 days, a 12-week treatment period, and a post-treatment period. The screening period consisted of three visits: Screening Visit 1, Screening Visit 2, and Day −1. Upon completion of Day −1 procedures, eligible subjects were randomized through an Interactive Voice Response/Interactive Web-Based (IVR/IWB) system. Subjects were randomized in an equal ratio to one of four treatment groups (placebo, 5 mg Compound A, 25 mg Compound A, or donepezil).
(§4) Each subject was instructed to take study drug once-daily in the morning for 12 weeks. Subjects randomized to donepezil took 5 mg donepezil QD for the first 4 weeks and began 10 mg donepezil QD at Week 4 through the remainder of the study. The subject and investigator were blinded to the treatment assignment throughout the study.
(§5) The primary efficacy measure was the Alzheimer's Disease Assessment Scale-cognitive subscale (ADAS-cog). The ADAS-cog was designed to assess the cognitive impairments most common in AD. The ADAS-cog is a subscale of the ADAS, which focuses on cognitive functioning and memory. Two versions were used in the study: an 11-item version and an expanded (13-item) version. The 11-item version of the ADAS-cog was the primary endpoint measure in this study. ADAS-Cog (13-item) was administered throughout the study and the primary efficacy variable was considered the change from baseline to final evaluation on the ADAS-cog total score (11-item).
The 13-item ADAS-cog is comprised of the 11-item ADAS-cog with two additional items (Delayed Word Recall and a Number Cancellation Test) that are designed to assess attention and concentration. The Delayed Word Recall Test (range from 0 to 10) was an addition to the Word Recall Test to enhance sensitivity of the instrument in assessing cognition functioning on patients with mild AD. The Number Cancellation Test (range from 0 to 5) was reliable and sensitive to a broad range of dementia severity, and was recommended as a useful addition to the 11-item ADAS-cog. The total score of the 13-item ADAS-cog ranges from 0 to 85, with a higher score representing greater impairment. The ADAS-cog (13-item) was administered by a certified rater at Screening Visit 1, Screening Visit 2, and Day-1, as well as Weeks 4, 8, and 12 during the study.

[2] = tested on: subjects with mild-to-moderate Alzheimer's disease; assay: Phase 2a Clinical Study A: ADAS-cog (11-item) total score; type: in vivo, human
Protocol: as §1, §2, §3, §4
Subjects completed 4 visits during the treatment period at Week 2, Week 4, Week 8 and Week 12. Subjects returned to the study site for a follow-up visit approximately 2 weeks after the Week 12 or premature discontinuation visit for a safety evaluation. In addition, study site personnel contacted each subject's caregiver by telephone approximately 30 days after the subject's last dose of study drug to ascertain the subject's safety status.
as §5
The 11-item ADAS-cog includes the following tests: Word Recall, Commands, Constructional Praxis, Naming Objects and Fingers, Ideational Praxis, Orientation, Word Recognition, Remembering Test Instructions, Comprehension of Spoken Language, Spoken Language Ability, and Word Finding Difficulty. The total score of the 11-item ADAS-cog ranges from 0 to 70, with a higher score representing greater impairment.
The primary efficacy variable was the change from baseline to the final observation on the ADAS-cog (11-item) total score. The primary efficacy analysis was carried out using an ANCOVA model with treatment and study site as the main effects and baseline score as the covariate. […]

[3] = donepezil 5 mg QD first 4 weeks then 10 mg QD, ANCOVA, baseline to final evaluation
[4] = donepezil 5 mg QD first 4 weeks then 10 mg QD, Change to Week 8
[5] = donepezil 5 mg QD first 4 weeks then 10 mg QD, Change to Week 12
[6] = donepezil 5 mg QD first 4 weeks then 10 mg QD, MMRM, Week 8
[7] = donepezil 5 mg QD first 4 weeks then 10 mg QD, MMRM, Week 12
[8] = donepezil 5 mg QD first 4 weeks then 10 mg QD, final evaluation, 12-week treatment
[9] = donepezil 5 mg QD, Change to Week 4
[10] = donepezil 5 mg QD, MMRM, Week 4

With `COc1cc2c(cc1OC)C(=O)C(CC1CCN(Cc3ccccc3)CC1)C2` (stereo not shown) [Donepezil, donepezil, reference compound] the “ADAS-cog (13-Item) Total Score Difference From Placebo LS Mean (SE) of Difference” value [1, 3] was −2.49 (1.04), the “ADAS-cog (13-Item) Total Score LS Mean (SE) of Change” value [1, 3] was −3.27 (0.74) and the “ADAS-cog (13-Item) Total Score Observed Mean (SD) change” value [1, 4] was −2.66 (5.48). For the same compound, the “ADAS-cog (13-Item) Total Score Observed Mean (SD) change” value [1, 5] was −4.17 (4.94), the “ADAS-cog (13-Item) Total Score Difference From Placebo LS Mean (SE) of Difference” value [1, 6] was −1.85 (0.98) and the “ADAS-cog (13-Item) Total Score LS Mean (SE) of Change from Baseline” value [1, 6] was −2.20 (0.70). For the same compound, the “ADAS-cog (13-Item) Total Score Difference From Placebo LS Mean (SE) of Difference” value [1, 7] was −2.48 (1.06), the “ADAS-cog (13-Item) Total Score LS Mean (SE) of Change from Baseline” value [1, 7] was −3.61 (0.76) and the “ADAS-cog (13-Item) Total Score Observed Mean (SD) Final” value [1, 8] was 33.90 (13.37). The “ADAS-cog (13-Item) Total Score Observed Mean (SD) change” value [1, 9] was −1.84 (3.94), the “ADAS-cog (13-Item) Total Score Difference From Placebo LS Mean (SE) of Difference” value [1, 10] was −1.53 (0.74) and the “ADAS-cog (13-Item) Total Score LS Mean (SE) of Change from Baseline” value [1, 10] was −1.53 (0.53). For the same compound, the “ADAS-cog (11-Item) Total Score Difference From Placebo LS Mean (SE) of Difference” value [2, 3] was −1.43, the “ADAS-cog (11-Item) Total Score LS Mean (SE) of Change” value [2, 3] was −2.11 (0.65) and the “ADAS-cog (11-Item) Total Score Observed Mean (SD) change” value [2, 4] was −1.69 (4.96). The “ADAS-cog (11-Item) Total Score Observed Mean (SD) change” value [2, 5] was −2.91 (4.76), the “ADAS-cog (11-Item) Total Score Difference From Placebo LS Mean (SE) of Difference” value [2, 6] was −0.70 (0.83) and the “ADAS-cog (11-Item) Total Score LS Mean (SE) of Change from Baseline” value [2, 6] was −1.26 (0.59). The “ADAS-cog (11-Item) Total Score Difference From Placebo LS Mean (SE) of Difference” value [2, 7] was −1.57 (0.91), the “ADAS-cog (11-Item) Total Score LS Mean (SE) of Change from Baseline” value [2, 7] was −2.40 (0.65) and the “ADAS-cog (11-Item) Total Score Observed Mean (SD) Final” value [2, 8] was 23.21 (11.53). For the same compound, the “ADAS-cog (11-Item) Total Score Observed Mean (SD) change” value [2, 9] was −1.04 (3.53), the “ADAS-cog (11-Item) Total Score Difference From Placebo LS Mean (SE) of Difference” value [2, 10] was −0.68 (0.65) and the “ADAS-cog (11-Item) Total Score LS Mean (SE) of Change from Baseline” value [2, 10] was −0.78 (0.47). The “cognition relative to placebo, ADAS-cog (11-item) MMRM (in words)” value ([2]; donepezil treatment group) was “cognitive improvement relative to placebo”.
